How the values were obtained:
[1] = test system: Beet Curly Top Virus (BCTV); assay: Evaluation of Beet Curly Top Virus on tomatoes (field trial, seedlings treated before transplantation); format: in vivo; conditions: tomato var Heinz 8504; seedlings sprayed with 4 gm ai/ha two days before transplant; rated approximately 8 weeks later; P = 0.065
Protocol: In the instant example, symptoms of infection with Beet Curly Top Virus (BCTV) on tomatoes were evaluated. Plants were either treated with a composition comprising 1-MCP or left untreated.
Tomato seedlings (var Heinz 8504) with 4 leaves (approximately 4 inches tall) in seedling trays were either i) sprayed with a treatment of 1-MCP (4 gm ai/ha) or ii) left untreated. Contacting the plants was achieved using a pressurized backpack spraying system containing 1-MCP and water. Two days later, the tomato seedlings were transplanted into the open field near Five Points, Calif. following normal commercial tomato production practices.
Throughout the growing season, normal field production practices were performed, including fertilization, watering, and pest control (e.g., insecticide, fungicide, and herbicide) applications uniformly to the entire trial area. Approximately eight (8) weeks later, when the tomatoes had grown to approximately 2 feet tall, an infestation of Beet Curly Top Virus (BCTV) was noted. Observations were taken on percentage of plants infected with BCTV in treated and untreated plots.

[2] = test system: Tomato Yellow Leaf Curl Virus (TYLCV); assay: Evaluation of Tomato Yellow Leaf Curl Virus on tomatoes (field trial); format: in vivo, Tomato Yellow Leaf Curl Virus (Begomovirus Geminiviridae); conditions: tomato var Florida 47; seedlings treated with 50 ppm ai by watering can three days before transplant; rated approximately 9 weeks later; P = 0.081
Protocol: In the instant example, symptoms of infection with Tomato Yellow Leaf Curl Virus (TYLCV) on tomatoes were evaluated. Plants were either treated with a composition comprising 1-MCP or left untreated.
Tomato seedlings (var Florida 47) with approximately 4 leaves (approximately 4 inches tall) in seedling trays were either i) sprayed with 1-MCP (50 ppm ai) or ii) left untreated. Contacting the plants was achieved using a watering can containing 1-MCP and water. Three days later, the seedlings were transplanted into the open field near Myakka City, Fla. following normal commercial tomato production practices.
Throughout the growing season, normal field production practices were performed, including fertilization, watering, and pest control (e.g., insecticide, fungicide, and herbicide) applications uniformly to the entire trial area. Approximately 9 weeks later, when the tomatoes had grown to approximately 3 feet tall, an infestation of Tomato Yellow Leaf Curl Virus was observed. In each plot of plants that were treated with 1-MCP, and the corresponding plot of plants that were untreated, counts were made of the number of plants showing symptoms of infection by TYLCV out of the total of 54 plants per plot.

[3] = test system: Target Spot (Corynespora cassiicola); assay: Evaluation of Target Spot infection on tomatoes (field trial); format: in vivo; conditions: tomato var HM 1823; seedlings treated with 50 ppm ai by watering can three days before transplant; rated approximately 9 weeks later; P = 0.003
Protocol: In the instant example, symptoms of Target Spot […] infection (Corynespora cassiicola) on tomatoes were evaluated. Plants were either treated with a composition comprising 1-MCP or left untreated.
Tomato seedlings (var HM 1823) with approximately 4 leaves (approximately 4 inches tall) in seedling trays were either i) sprayed with 1-MCP (50 ppm ai) or ii) left untreated. Contacting the plants was achieved using a watering can containing 1-MCP and water. Three days later, the seedlings were transplanted into the open field near Myakka City, Fla. following normal commercial tomato production practices.
Throughout the growing season, normal field production practices were performed, including fertilization, watering, and pest control (e.g., insecticide, fungicide, and herbicide) applications uniformly to the entire trial area. Approximately 9 weeks later, when the tomatoes had grown to approximately 3 feet tall, an infestation of Target Spot was observed. In each plot of plants that were treated with 1-MCP, and the corresponding plot of plants that were untreated, counts were made of the number of plants showing symptoms of infection by Target Spot out of the total of 54 plants per plot.

[4] = test system: Bacterial Spot (Xanthomonas euvesicatoria and Xanthomonas perforans, Xanthomonas vesicatoria, and Xanthomonas gardneri); assay: Evaluation of Bacterial Spot on tomatoes (field trial); format: in vivo; conditions: tomato var Charger; seedlings sprayed with 1-40 g ai/ha two days before transplant; rated approximately 3 weeks later; p = 0.04
Protocol: In the instant example, symptoms of Bacterial Spot bacterial infection (Xanthomonas euvesicatoria and Xanthomonas perforans=[Xanthomonas axonopodis (syn. campestris) pv. vesicatoria], Xanthomonas vesicatoria, and Xanthomonas gardneri) on tomatoes were evaluated. Plants were either treated with a composition comprising 1-MCP or left untreated.
Tomato Seedlings (var Charger) with approximately 4 leaves (approximately 4-5 inches tall) in seedling trays were either i) sprayed with 1-MCP (1-40 g ai/ha) or ii) left untreated. Contacting the plants was achieved using pressurized backpack sprayer. Two days later, the seedlings were transplanted into the open field near Thonotosassa, Fla. following normal commercial tomato production practices.
Throughout the growing season, normal field production practices were performed, including fertilization, watering, and pest control (e.g., insecticide, fungicide, and herbicide) applications uniformly to the entire trial area. Approximately 3 weeks later, when the tomatoes had grown to approximately 1½ feet tall an infestation of Bacterial Spot was observed. In each plot of plants that were treated with 1-MCP, and the corresponding plot of plants that were untreated, disease severity assessments were made.

[5] = test system: Early Blight (Alternaria tomatophila); assay: Evaluation of Early Blight on tomatoes (field trial); format: in vivo
Protocol: In the instant example, symptoms of fungal infection with Early Blight (Alternaria tomatophila) on tomatoes were evaluated. Plants were either treated with a composition comprising 1-MCP or left untreated.
Tomato seedlings (var Charger) with approximately 4 leaves (approximately 4-5 inches tall) in seedling trays were either i) sprayed with 1-MCP (1-10 g ai/ha) or ii) left untreated. Contacting the plants was achieved using pressurized backpack sprayer. Two days later, the seedlings were transplanted into the open field near Thonotosassa, Fla. following normal commercial tomato production practices.
Throughout the growing season, normal field production practices were performed, including fertilization, watering, and pest control (e.g., insecticide, fungicide, and herbicide) applications uniformly to the entire trial area. Beginning approximately 3 weeks later, and continuing approximately 7 weeks later and approximately 11 weeks later, the percent disease severity ratings were made in each plot of plants that were treated with 1-MCP and the corresponding plot of plants that were untreated.

Root Rot (Pythium sp.) = assay: Evaluation of Root Rot on peppers (field trial); format: in vivo
Protocol: In the instant example, symptoms of fungal infection with Root Rot (Pythium sp.) on peppers were evaluated. Plants were either treated with a composition comprising 1-MCP or left untreated.
Pepper seedlings with approximately 3 leaves (approximately 4-5 inches tall) in seedling trays were either i) sprayed with 1-MCP (1-10 g ai/ha) or ii) left untreated. Contacting the plants was achieved using a watering can containing a 50 ppm solution of 1-MCP. Three days later, the seedlings were transplanted into the open field near Clinton, N.C. following normal commercial pepper production practices.
Throughout the growing season, normal field production practices were performed, including fertilization, watering, and pest control (e.g., insecticide, fungicide, and herbicide) applications uniformly to the entire trial area.

[6] = test system: Downy Mildew (Pseudoperonospora cubensis); assay: Evaluation of Downy Mildew on cucumbers (field trial); format: in vivo
Protocol: In the instant example, symptoms of fungal infection with Downy Mildew (Pseudoperonospora cubensis) on cucumbers were evaluated. Plants were either treated with a composition comprising 1-MCP or left untreated.
Cucumber seedlings with approximately 3 leaves (approximately 3 inches tall) in seedling trays were either i) sprayed with 1-MCP (40 g ai/ha) or ii) left untreated. Contacting the plants was achieved using pressurized backpack sprayer. Two days later, the seedlings were transplanted into the open field near Futian Village, Wangsi Township, Dayi County, Sichuan, China, following normal commercial production practices.
Throughout the growing season, normal field production practices were performed, including fertilization, watering, and pest control (e.g., insecticide, fungicide, and herbicide) applications uniformly to the entire trial area. Approximately 5-6 weeks later, the percent disease severity ratings were made in each plot of plants that were treated with 1-MCP and the corresponding plot of plants that were untreated.

CC1=CC1 [1-MCP, 1-methylcyclopropene]
Percentage of BCTV Infested Plants [1]: 4%
Mean (plants showing symptoms of infection by TYLCV out of 54 plants per plot) [2]: 11%
Percentage of Infected Plants (Target Spot) [3]: 19%
Bacterial Spot disease severity assessment [4]: 4%
reduction of average percent disease severity ratings for Early Blight versus untreated ([5]; across the three rating dates (approximately 3, 7, 11 weeks)): approximately 30%
average percent disease severity rating for Early Blight ([5]; tomato var Charger, seedlings sprayed with 1-10 g ai/ha two days before transplant, average across approximately 3, 7 and 11 weeks later, p = 0.09): 27.6%
mortality and stunting of plants caused by Pythium (Root Rot (Pythium sp.); pepper seedlings treated with 1-10 g ai/ha (watering can, 50 ppm solution) three days before transplant, versus untreated): clearly reduced the mortality and stunting of plants
plant appearance and Pythium pressure compared to untreated controls (Root Rot (Pythium sp.); pepper, two weeks after transplantation): slightly larger, darker green, and not as affected by Pythium pressure
percent disease (Downy Mildew) severity rating ([6]; cucumber seedlings sprayed with 40 g ai/ha two days before transplant, rated approximately 5-6 weeks later, p = 0.08): 18%
reduction of percent disease (Downy Mildew) severity ratings versus untreated ([6]; cucumber, approximately 5-6 weeks later): approximately 47%

Source: patent US10555522B2, “Long term methods of improving disease tolerance in plants” (priority 2016, dated 2020)
